Test results: US6207656A, “Vitamin D analogues and their neuronal effects” (Cephalon, Inc., priority 1998, dated 2001)
“Also recorded” adds a separate entry of the source. One block for each molecule: values may come before it.

How the values were obtained:
[1] = Serum calcium in fimbria fornix lesioned rats; type: in vivo, Sprague Dawley rats; conditions: oral gavage daily 14 days; data not shown
Method: For the fimbria fornix lesion studies, serum calcium was determined by the following method. Sprague Dawley rats (200-300 g) were dosed as described below. Blood was collected from the animals after sacrifice and allowed to clot at room temperature for 3-10 minutes; cells were pelleted in a clinical centrifuge.
(§1) The hippocampal ChAT activity is expressed as a percentage of the hippocampal ChAT activity of the […] control side (i.e., lesion control) in FIGS. 4 to 8.

[2] = Calcemic activity in rats, serum calcium after 7 days oral gavage; type: in vivo, LEW/MOL female rats; conditions: for Calcium in Serum: ± S.D.; for Calcemic Activity (%): potency relative to 1α,25(OH)2 D3, rats, p.o. 7 days; for calcemic classification: summary statement
Method: For determining calcemic activity, LEW/MOL female rats (130-170 g) were administered test compounds daily for 7 days by oral gavage. Control rats received the vehicle. Each group consisted of 3 rats. Blood was collected by cardiac puncture on day 7.

[3] = test system: acrylamide-induced peripheral neuropathy in rats; assay: Acrylamide-induced peripheral neuropathy, landing foot spread; type: in vivo, rat
Method: Peripheral neuropathy was induced in rats by the administration of the neurotoxin acrylamide, 50 mg/kg, IP, 3×/week. The acrylamide treatment occurred during the first three weeks of the experiment. After acrylamide was discontinued, the animals were allowed to recover for an additional 3-5 weeks. The ability of Compound (A) or Compound (B) to either slow the onset of peripheral neuropathy, reduce the severity of the peripheral neuropathy or enhance the recovery from peripheral neuropathy was determined. The compounds were administered either orally (Compound (A)) or via subcutaneous Alzet mini-pumps (I month model)(Compounds (A) and (B)) beginning 3 days prior to the first dose of acrylamide. Compound (A) was administered orally at doses of 0.3, 1.0 and 3.0 μg/kg/day and by mini-pump at doses of 10, 55, 100, 330 and 550 ng/day. Compound (B) was administered by mini-pump at doses of 10, 33, 100, 330 and 1000 ng/day. These dose ranges were selected to limit toxicity and to bracket the dose range used in fimbria fornix lesion experiments. The mini-pumps were replaced at the end of the fourth week so that the test compound was on board for the duration of the experiment. In FIG. 11B, the data from FIG. 11A was averaged.

vitamin D receptor = target: T1, vitamin D receptor (Gallus gallus, UniProt O42392); assay: Vitamin D receptor binding (displacement of 3H-1α,25(OH)2D3)
T1 sequence (O42392 1-451): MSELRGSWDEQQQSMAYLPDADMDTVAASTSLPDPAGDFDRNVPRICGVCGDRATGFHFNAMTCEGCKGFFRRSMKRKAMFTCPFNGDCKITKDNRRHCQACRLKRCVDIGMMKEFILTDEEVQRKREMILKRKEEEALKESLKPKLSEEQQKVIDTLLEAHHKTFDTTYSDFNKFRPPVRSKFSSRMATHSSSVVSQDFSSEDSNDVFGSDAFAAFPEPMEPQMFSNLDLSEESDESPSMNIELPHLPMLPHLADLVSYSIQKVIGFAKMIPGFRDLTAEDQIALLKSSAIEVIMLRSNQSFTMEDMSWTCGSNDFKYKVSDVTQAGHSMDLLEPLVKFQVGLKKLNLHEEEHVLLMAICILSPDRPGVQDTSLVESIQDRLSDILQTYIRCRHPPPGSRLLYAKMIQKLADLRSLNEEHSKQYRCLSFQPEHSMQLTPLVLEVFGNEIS
Source text: Bound and free ^3 H-1α,25(OH2)D3 were then separated on dextran-coated charcoal, samples were centrifuged and the supernatants containing the receptor-bound ^3 H-1α,25(OH2)D3 were counted in a liquid scintillation counter.

hippocampal ChAT = assay: Fimbria fornix lesion model, hippocampal ChAT activity; type: in vivo, rat; conditions: oral gavage daily 14 days, FIGS. 4 to 8; * p<0.05 vs vehicle-treated lesioned controls
Source text: The fimbria fornix lesion model is an established protocol for assessing cholinergic neuronal survival in the basal forebrain. […] Contained within the region of the brain 10 are cholinergic neurons 16. A healthy cholinergic neuron has a cell body 18, and one or more axons 20. Each of the axons 20 have a free end, referred to as a terminal 22, that extends into the hippocampus 14. In the fimbria fornix lesion model, damaged cholinergic neurons 24 are produced by transecting a portion of the axons 20 at a location 26 between the hippocampus 14 and the cell body 18. As a result of this transection, damaged cell bodies 28 are produced that no longer have cholinergic axons 30 and terminals 32. These damaged cell bodies 28, also lose cholinergic cell body markers 34 and stop producing ChAT. The fimbria fornix lesion model is used to study methods of restoring ChAT production, such as through stimulating increased production of ChAT in the healthy cholinergic neurons, and/or through restoring normal functioning of the damaged cholinergic neurons 24.
For the studies described herein, animals were anesthetized with pentobarbital and placed in a stereotaxic apparatus. The skull was opened on the left side, a knife was positioned 1.2 mm posterior to bregma and 0.6 mm lateral to the midline. The knife was lowered to 4.5 mm below the dura into the brain and moved laterally 2 mm partially transecting the fimbria fornix. After 14 days of administration of the test compounds by oral gavage, the hippocampus was removed and homogenized.
as §1

CNTF mRNA = assay: Induction of CNTF mRNA expression in rats; type: in vivo, Sprague Dawley rats
Method: Young adult male Sprague Dawley rats (250-350 g) were administered Compound (A), Compound (E), or a vehicle (80% propylene glycol (human formulation grade; Spectrum Quality Products, Inc., Gardena, Calif., catalog #PR130-55003) and 20% phosphate buffer, pH 9.2) at doses ranging from 0.1 to 5.5 μg/kg daily by oral gavage for eight days. Five hours after the last dose, the animals were sacrificed by decapitation. Each brain was quickly removed and chilled in ice-cold saline. The brain was cut into 2 mm thick coronal sections. Portions of the hippocampus, encompassing the CA1 region, and the medial septum were removed by punching 2 mm^3 sections using a calibrated tissue punch. Punched sections were immediately frozen on dry ice and then stored at -70° C. RNA was prepared from dissected tissue pieces.
Punches of tissue were homogenized in […] RNAzolB™ (Bioteex Laboratories, Houston, Tex.) using a homogenizer (Tekmar, Germany) until fully homogenized and then 250 μl RNAzilB™ was added. Typically, punches from the corresponding regions of brains of 2 to 3 animals were combined together. RNA was prepared as recommended by the manufacturer (Biotecx Laboratories). […] Concentration of RNA was measured spectrophotometrically and the quality of RNA was visualized on a nondenaturing agarose gel. […]

NGF mRNA = assay: Induction of NGF mRNA expression in rats; type: in vivo, Sprague Dawley rats
Method: Five hours after the last dose, the animals were sacrificed by decapitation. Each brain was quickly removed and chilled in ice-cold saline. The brain was cut into 2 mm thick coronal sections. Portions of the hippocampus, encompassing the CA1 region, and the medial septum were removed by punching 2 mm^3 sections using a calibrated tissue punch. Punched sections were immediately frozen on dry ice and then stored at -70° C. RNA was prepared from dissected tissue pieces.
Punches of tissue were homogenized in […] RNAzolB™ (Bioteex Laboratories, Houston, Tex.) using a homogenizer (Tekmar, Germany) until fully homogenized and then 250 μl RNAzilB™ was added. Typically, punches from the corresponding regions of brains of 2 to 3 animals were combined together. RNA was prepared as recommended by the manufacturer (Biotecx Laboratories). Following isopropanol precipitation, RNA was reprecipitated with ethanol and finally resuspended in 25-50 μL of water. Concentration of RNA was measured spectrophotometrically and the quality of RNA was visualized on a nondenaturing agarose gel. Equal amounts of RNA, usually 1-2 μg, were reverse transcribed using Superscript II™ (Gibco BRL), as recommended by the manufacturer. The assay was terminated by incubation at 95° C. 1 min. at 55-60° C. (depending on the primer set) and 2 min. at 72° C. […] After the assay, samples were electrophoresed on 5% nondenaturing acrylamide gels. Gels were dried and the resulting labeled bands were visualized on a phosphorimager (Storm 840, Molecular Dynamics, Sunnyvale, Calif.). The following primers were used: […]
Nerve Growth Factor (NGF). Primers were designed against the rat sequence.

serum calcium at doses giving the ChAT results [1]: low calcemic dose levels
Calcium in Serum ([2]; 10 μg/kg/day p.o., Table 2B (vehicle 2.57 ± 0.06)): 2.51 ± 0.05 mmol/L
Calcium in Serum ([2]; 50 μg/kg/day p.o., Table 2B (vehicle 2.57 ± 0.06)): 2.59 ± 0.02 mmol/L
Calcium in Serum ([2]; 100 μg/kg/day p.o., Table 2B (vehicle 2.57 ± 0.06)): 2.59 ± 0.04 mmol/L
Calcemic Activity (%) [2]: 1%
Kd (vitamin D receptor): 0.2 nM
SMILES: C=C1/C(=C\C=C2/CCC[C@]3(C)[C@@H]([C@@H](C)CSc4cccc(C(C)(C)O)c4)CC[C@@H]23)C[C@@H](O)C[C@@H]1O [Compound (B), 1(S),3(R)-dihydroxy-20(R)-(3-((1-hydroxy-1-methyl)ethyl)phenylthiomethyl)-9,10-seco-pregna-5(Z),7(E),10(19)-triene]
calcemic classification [2]: exemplary of low calcemic vitamin D3 analogues
development of peripheral neuropathy ([3]; continuously pumped (mini-pump)): did not prevent the development of the acrylamide-induced peripheral neuropathy
recovery from peripheral neuropathy ([3]; mini-pump): increased the recovery from acrylamide-induced peripheral neuropathy; also recorded: an effect upon the recovery from the lesion was apparent
return of landing foot spread to sham levels ([3]; mini-pump 10 ng/day): returned to sham levels by day 36
landing foot spread on day 40 ([3]; mini-pump 10, 100 or 1000 ng/day (FIG. 13B)): statistically significant decrease in landing foot spread
landing foot spread ([3]; mini-pump, recovery period): decreased landing foot spread during the recovery period
hippocampal ChAT activity vs lesioned controls (hippocampal ChAT): significant increase in CHAT activity

serum calcium at doses giving the ChAT results [1]: low calcemic dose levels
Calcium in Serum ([2]; 0.1 μg/kg/day p.o., Table 2C (vehicle 2.68 ± 0.03)): 2.71 ± 0.07 mmol/L
Calcium in Serum ([2]; 1.0 μg/kg/day p.o., Table 2C (vehicle 2.68 ± 0.03)): 2.66 ± 0.06 mmol/L
Calcium in Serum ([2]; 10 μg/kg/day p.o., Table 2C (vehicle 2.68 ± 0.03)): 2.82 ± 0.05 mmol/L
Calcemic Activity (%) [2]: 8%
SMILES: C=C1/C(=C\C=C2/CCC[C@]3(C)[C@@H]([C@@H](C)COc4cccc(C(C)(C)O)c4)CC[C@@H]23)C[C@@H](O)C[C@@H]1O [Compound (C), 1(S), 3(R)-dihydroxy-20(R)-[3-(2-hydroxy-2-propyl)-phenoxymethyl]-9,10-seco-pregna-5(Z),7(E),10(19)-triene]
calcemic classification [2]: exemplary of low calcemic vitamin D3 analogues
hippocampal ChAT activity vs lesioned controls (hippocampal ChAT): significant increase in CHAT activity

serum calcium at doses giving the ChAT results [1]: low calcemic dose levels
Calcium in Serum ([2]; 0.1 μg/kg/day p.o., Table 2D (vehicle 2.51 ± 0.09)): 2.59 ± 0.08 mmol/L
Calcium in Serum ([2]; 5.0 μg/kg/day p.o., Table 2D (vehicle 2.51 ± 0.09)): 2.90 ± 0.06 mmol/L
Calcium in Serum ([2]; 10 μg/kg/day p.o., Table 2D (vehicle 2.51 ± 0.09)): 3.19 ± 0.16 mmol/L
Calcemic Activity (%) [2]: 20%
SMILES: C=C1/C(=C\C=C2/CCC[C@]3(C)[C@@H]([C@H](C)CCCCC(O)(CC)CC)CC[C@@H]23)C[C@@H](O)C[C@@H]1O [Compound (D)]
calcemic classification [2]: exemplary of low calcemic vitamin D3 analogues
hippocampal ChAT activity vs lesioned controls (hippocampal ChAT): significant increase in CHAT activity

serum calcium at doses giving the ChAT results [1]: low calcemic dose levels
Calcium in Serum ([2]; 0.1 μg/kg/day p.o., Table 2E (vehicle 2.51 ± 0.09)): 2.41 ± 0.01 mmol/L
Calcium in Serum ([2]; 1.0 μg/kg/day p.o., Table 2E (vehicle 2.51 ± 0.09)): 2.42 ± 0.04 mmol/L
Calcium in Serum ([2]; 10 μg/kg/day p.o., Table 2E (vehicle 2.51 ± 0.09)): 2.38 ± 0.03 mmol/L
Calcemic Activity (%) [2]: 20%
Kd (vitamin D receptor): 0.3 nM
SMILES: C=C1/C(=C\C=C2/CCC[C@]3(C)[C@@H]([C@H](C)/C=C/C#CC(O)(CC)CC)CC[C@@H]23)C[C@@H](O)C[C@@H]1O [Compound (E)]
production of CTNF mRNA (CNTF mRNA; 0.3, 1.0, 3.0, and 5.5 μg/kg oral, 8 days, rat septum (FIG. 2B)): facilitated the production of NGF mRNA and CTNF mRNA
dose dependence of CTNF mRNA production (CNTF mRNA; 0.3-5.5 μg/kg, rat septum): generally increased with increasing dosage
production of NGF mRNA (NGF mRNA; 0.3, 1.0, 3.0, and 5.5 μg/kg oral, 8 days, rat septum (FIG. 2A)): facilitated the production of NGF mRNA
dose dependence of NGF mRNA production (NGF mRNA; 0.3-5.5 μg/kg, rat septum): generally increased with increasing dosage
calcemic classification [2]: exemplary of low calcemic vitamin D3 analogues
hippocampal ChAT activity vs lesioned controls (hippocampal ChAT): significant increase in CHAT activity
